The subject of one assay is HL60 cells. The experiment in a line: Mitochondrial transmembrane potential (MTP) assay, Rh123/PI, HL60 cells. It counts as cell-based. The following applies: serum-deprived quiescent versus proliferating HL60 cells, fenretinide. As to the method:
HL60 cells were cultured in RPMI 1640 supplemented (i) with or (ii) without 10% fetal bovine serum to obtain proliferating and quiescent leukemia cells respectively. Serum-deprived quiescent leukemic cells and proliferating leukemic cells were then cultured in media containing 0.5% FBS, and treated with 1 μM and 2.5 μM fenretinide, and also with chemotherapeutics as controls, 20 μM idarubicin (IDA) and 5 μM cytarabine (Ara-C).
To examine the effects of fenretinide on proliferating and quiescent leukemia cells, HL60 cells were chosen as serum deprived quiescent leukemic cell model obtained when incubated in RPMI 1640 without serum for 48 h, with G0/G1 phase cells (being in quiescent state) accounting up to 59.9%. Serum-deprived quiescent leukemic cells and proliferating leukemic cells were then cultured in media containing 0.5% FBS, and treated with 1 μM and 2.5 μM fenretinide, and also with chemotherapeutics as controls, 20 μM idarubicin (IDA) and 5 μM cytarabine (Ara-C). […] Fenretinide induces intracellular production of ROS, lowers mitochondrial transmembrane potential (MTP), and eventually leads to apoptosis in a variety of malignancies. We measured MTP induced by fenretinide in proliferating and quiescent HL60 cells, as examined through rhodamine 123 and propidium iodide staining and followed by flow cytometry analysis. […] We further measured intracellular ROS abundance induced by fenretinide. […] After incubation with 1 μM and 2.5 μM fenretinide for 3 h, the ROS level of proliferating cells increased by 1.77 and 2.6 fold, respectively.

In assay [1] the test system is CD34+CD38+ CML progenitor cells. Briefly: Apoptosis (Annexin V/7AAD, FACS) of CML progenitor cells. The class given is cell-based, human. An excerpt: Fresh bone marrow (BM) cells were obtained from 38 patients with CML and 5 non-leukemic donors, 25 AML, 17 ALL, and 8 normal specimens with informed consent according to the Declaration of Helsinki. Approval was obtained from Institutional Review Board at the School of Medicine in Shanghai Jiao Tong University. BM mononuclear cells were isolated by Ficoll density gradient centrifugation (Shanghai Second Reagent Factory, Shanghai, China). CD34^+ Cell were selected using EasySep® Human CD34 Positive Selection kit (Stem Cell Technologies, Vancouver, BC, Canada) according to the manufacturer's instructions. The purity of CD34 cells ranged between 92 and 98% in all samples detennined by flow cytometry. The CD34^+ cells were cultured in a serum-free medium (StemPro 34; Gibco BRL, Gaithersburg, Md.) supplemented with growth factors (PeproTech, London, United Kingdom) (20). The growth factors consisted of GM-CSF (200 pg/mL), G-CSF (1 ng/mL); SCF (200 pg/mL); LIF (50 pg/mL), MIP-1α (200 pg/mL) and IL-6 (1 ng/mL).
Primitive AML and CML subpopulations (CD34^+ cells) were identified using CD34-PE in combination with CD38-APC, and followed by double-labeling with 7AAD and Annexin V antibodies for apoptosis assessment. The CD34^+ cells were first stained with antibodies against the surface markers CD34-PE and CD38-APC (Beckman Coulter, Fullerton, Calif.) and incubated at room temperature for 15 minutes. Cells were then washed with cold PBS and resuspended in 200 μL annexin V 1×binding buffer (10 mM HEPES/NaOH, pH 7.4, 140 mM NaCl, 2.5 mM CaCl2), 5 μL AnnexinV-FITC (BD Phanningen, San Diego, Calif.) and 7-aminoactinomycin (7-AAD, 0.25 mg/mL) (Molecular Probes, Eugene, Oreg.). Subsequently, the samples were incubated at room temperature for 15 minutes and analyzed by flow cytometry.
It would be of significance to find out the subpopulations specifically targeted by fenretinide. We divided the CML patient specimens into mononuclear cells and CD34^+ cells. The CD34^+ CML cells are primitive cells including CML stem and progenitor cells. […]

A further assay concerns NRF2 and HSF1. The experiment in a line: Western blot of NRF2 and HSF1 in nuclear extracts of NB4 cells. The class given is cell-based. The following applies: 1 μM fenretinide, within 6 hours. The text has this: Transcriptome analysis of fenretinide-induced apoptosis in leukemia cell lines facilitated in-depth mining of biological information relevant to oxidative stress-mediated apoptosis, including the prediction of upstream transcription factors potentially involved in gene regulation. Of several dozens of transcriptional regulators predicted, stress-responsive transcription factors NRF2 and HSF1 are of particular interest for understanding how oxidative signaling is translated into downstream effects. NRF2 is known as a key regulator of intracellular redox balance, activating genes encoding antioxidative proteins under oxidative stress (Jaiswal, 2004; D'Autreaux and Toledano, 2007). Although HSF1 is commonly recognized as a heat-shock motivated transcription factor (Hayashida et al., 2006), it can also be activated by oxidative stress under certain circumstances (Ahn and Thiele, 2003). We therefore further investigated the temporal abundance and spatial localization of there two stress-responsive transcription factors during fenretinide-induced apoptosis in NB4 cells. […] The induction of NRF2 was extended beyond the 24 hour whereas HSF1 induction was terminated at this time point. […] Also, nuclear gathering of NRF2 was sustained beyond the 24 hour treatment whereas that of HSF1 was terminated. […]
Background: A western blot detects proteins with antibodies after separation by electrophoresis.

Take `CC1=C(/C=C/C(C)=C/C=C/C(C)=C/C(=O)Nc2ccc(O)cc2)C(C)(C)CCC1` [fenretinide, N-(4-hydroxyphenyl)retinamide]: in the assay with HL60 cells, the “mitochondrial transmembrane potential (MTP)” value is on record as “more significant reduced MTP”. The entries for the “apoptosis of CD34+CD38+ cells” value in assay [1] (2 μM fenretinide), in assay [1] (4 μM fenretinide) and in assay [1] (6 μM fenretinide) were 17.83%±6.01%, 30.60%±4.93% and 33.08%±19.43%, respectively. Besides, in the assay on NRF2 and HSF1, the “protein levels of NRF2 and HSF1 in nuclear extracts” value is “markedly elevated”.

Values taken from patent US8088822B2, “Use of fenretinide or bioactive derivatives thereof and pharmaceutical compositions comprising the same” (priority 2008, dated 2012).
